Reference: US20250248993A1, “CAMPTOTHECIN DERIVATIVES THAT BIND TO DDX5 PROTEIN AND PRODRUGS THEREOF” (priority 2022, published 2025)
Read-outs that look alike come from different tables or passages of the source.

Assays:
[1] = test system: various cancer lines; details: cited from earlier work
[2] = test system: FaDu cell line; assay: Cell viability assay (CellTiter-Glo), FaDu cell line; format: cell-based; details: FaDu not expressing ABCG2, 3 days
Protocol: After 24 hours, the cells were treated with 100 μL of each drug at nine different concentrations (⅕ serial dilutions from 1000 nM). […] Here, a control (drug concentration: 0) that was not treated with a drug was also prepared. The cells were cultured (37° C., 5% CO2) for 3 or 6 days. 100 μL of the CellTiter-Glo reagent (using the CellTiter-Glo® Luminescent Cell Viability Assay kit (Promega, G7571)) was added to each well and pipetted. After incubating at room temperature (RT) for 10 minutes, luminescence was measured.

[3] = test system: survivin, cIAP2, Mcl-1, and XIAP; assay: Western blot, expression inhibition of anti-apoptotic proteins in FaDu cell line; format: cell-based; details: FaDu, 0, 10, 100 nM, 24 hours
[4] = biological target: DDX5 (Homo sapiens, UniProt P17844); assay: Western blot, DDX5 degradation in FaDu and A549 cell lines; format: cell-based; design: endogenous in cells; host or cells: FaDu, A549; details: FaDu and A549, 0, 10, 100 nM
[5] = mouse, in vivo
[6] = Lactone to carboxylate form conversion at pH 7.4; format: physicochemical; details: pH 7.4, 37° C.
Protocol: Subsequently, it was centrifuged under conditions of 4° C., 2 minutes, and 13000 RCF, and a supernatant was used as a sample.
The column used was a Cortecs C18 2.7 μm, 4.6×50 mm column, and analysis was conducted under the following conditions: 1) 20 min: 5% B, 2) sample injection, 3) 2 min: 5% B, 4) 10 min: 5% B→50% B, and 5) 1 min: 50% B.
To measure changes over time, a sample chamber was maintained at 37° C. and a sample was set to be injected at each measurement time. The measurement time was set to 0, 20, 40, 60, 90, 120, 180, 240, 300, 360, 480, 600, and 720 minutes.
The content of each of lactone and carboxylate was calculated from the peak area thereof. Since the absorption coefficients of lactone and carboxylate are different, the lactone area was obtained by multiplying the carboxylate area by the equation below.

[7] = in vivo; details: NOD SCID, mouse, 1 mg/kg, Plasma Concentration
[8] = dose more than 10 times higher than a clinically applicable dose; cited from earlier work

Sequence of DDX5 (P17844 whole entry): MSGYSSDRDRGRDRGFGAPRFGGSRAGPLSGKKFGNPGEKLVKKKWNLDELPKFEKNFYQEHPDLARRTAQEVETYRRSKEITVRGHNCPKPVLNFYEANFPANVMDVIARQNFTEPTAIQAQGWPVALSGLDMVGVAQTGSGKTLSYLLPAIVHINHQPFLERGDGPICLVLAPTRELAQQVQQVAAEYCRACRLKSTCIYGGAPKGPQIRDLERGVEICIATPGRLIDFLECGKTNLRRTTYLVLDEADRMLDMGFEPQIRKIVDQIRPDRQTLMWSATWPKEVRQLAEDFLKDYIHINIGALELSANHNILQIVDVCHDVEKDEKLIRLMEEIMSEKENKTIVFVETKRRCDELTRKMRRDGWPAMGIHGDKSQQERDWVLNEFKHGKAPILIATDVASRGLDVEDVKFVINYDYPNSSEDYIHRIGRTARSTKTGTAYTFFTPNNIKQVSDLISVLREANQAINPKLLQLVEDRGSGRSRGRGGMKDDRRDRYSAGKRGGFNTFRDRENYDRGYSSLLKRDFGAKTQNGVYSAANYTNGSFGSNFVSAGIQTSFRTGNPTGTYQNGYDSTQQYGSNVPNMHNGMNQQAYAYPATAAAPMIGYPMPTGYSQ

In the case of `CCc1c2c(nc3ccc(O)cc13)-c1cc3c(c(=O)n1C2)COC(=O)[C@]3(O)CC` [SN-38], the IC50 ([1]; several cell lines) is listed as “nanomolar range”.

For `CC[C@@]1(O)C(=O)OCc2c1cc1n(c2=O)Cc2c-1nc1cc3c(c4c1c2[C@@H](NC(=O)[C@@H](O)C1CC1)CC4)OCO3` [PBX-7024], the “apoptotic efficacy (cell viability)” value [2] was “potent apoptotic efficacy”.

For `CC[C@@]1(O)C(=O)OCc2c1cc1n(c2=O)Cc2c-1nc1cc(F)c(C)c3c1c2[C@@H](N)CC3` [Exatecan, reference compound], the “expression of anti-apoptotic proteins (survivin, cIAP2, Mcl-1, XIAP)” value (“expression of anti-apoptotic proteins” below) [3] was “strongly inhibit the expression of an anti-apoptotic protein”.

For `CC[C@@]1(O)C(=O)OCc2c1cc1n(c2=O)Cc2cc3cc4c(cc3nc2-1)OCO4` [FL118, reference compound], the “DDX5 degradation / inhibition” value [4] is given as “superior to other substances”, the IC50 ([1]; majority of 140 cell lines originating from various cancer types) is given as under 100 nM and the “expression of anti-apoptotic proteins” value [3] is given as “strongly suppresses the expression of an anti-apoptotic protein”.

In the case of `CC[C@@]1(O)C(=O)OCc2c1cc1n(c2=O)Cc2c-1nc1cc3c(c4c1c2[C@@H](NC(=O)[C@@H](C)O)CC4)OCO3` [PBX-7016], the “clearance from the blood” value [5] is reported as “cleared from the blood very quickly”, the “conversion from lactone form to carboxylate form” value [6] is reported as “more rapidly and at a higher rate than other reference compounds” and the concentration at 0.167 h ([7]; ip, Mean) is reported as 164 ng/mL. For the same molecule, the concentration at 1 h ([7]; ip, Mean) was 16.1 ng/mL, the concentration at 0.167 h ([7]; ip, individual mice) was 158 ng/mL and the concentration at 0.167 h ([7]; iv, Mean) was 59.3 ng/mL. The concentration at 1 h ([7]; iv, Mean) was 6.9 ng/mL, the concentration at 0.167 h ([7]; iv, individual mice) was 76.2 ng/mL and the “DDX5 degradation / inhibition” value [4] was “inhibited DDX5 in a concentration-dependent manner”. The “expression of anti-apoptotic proteins” value [3] was “decreased as the concentration increased”.

With `CC[C@@]1(O)C(=O)OCc2c1cc1n(c2=O)Cc2c-1nc1cc3c(c4c1c2[C@@H](N)CC4)OCO3` (single isomer, unassigned) [PBX-7011] the “expression of anti-apoptotic proteins” value [3] was “decreased as the concentration increased”.

For `CC[C@@]1(O)C(=O)OCc2c1cc1n(c2=O)Cc2c-1nc1ccccc1c2CCNC(C)C` [CKD-602], the adverse drug reactions [8] is listed as “no adverse drug reactions, except an increase in gastric juice secretion”.

In the case of `CC[C@@]1(O)C(=O)OCc2c1cc1n(c2=O)Cc2c-1nc1cc3c(c4c1c2[C@@H](NC(=O)CO)CC4)OCO3` [PBX-7014], the “expression of anti-apoptotic proteins” value [3] is reported as “decreased as the concentration increased”.

For `CC[C@@]1(O)C(=O)OCc2c1cc1n(c2=O)Cc2c-1nc1cc(F)c(C)c3c1c2[C@@H](NC(=O)CO)CC3` [Dxd], the “cytotoxicity / activity relative to SN-38” value [1] is given as “approximately 10 times”.
